According to the NIST ThermoML archive (doi:10.1021/acs.jced.6b00269):
Numbers after ± are expanded uncertainties.

Details: for viscosity / mass density: 101.33 kPa, Liquid; for viscosity: Cone and plate viscometry; for mass density: Vibrating tube method; for Normal melting temperature: Crystal, DTA; for Glass transition temperature: DSC

Row | SMILES | viscosity (278.15 K) | viscosity (283.15 K) | mass density (283.15 K) | viscosity (288.15 K) | mass density (288.15 K) | viscosity (293.15 K) | mass density (293.15 K) | mass density (295.15 K) | viscosity (298.15 K) | mass density (298.15 K) | viscosity (303.15 K) | mass density (303.15 K) | viscosity (308.15 K) | mass density (308.15 K) | viscosity (313.15 K) | mass density (313.15 K) | mass density (318.15 K) | mass density (323.15 K) | mass density (328.15 K) | mass density (333.15 K) | other results
1 | CCCCCCCC[P+](CC)(CC)CC.O=[N+]([O-])c1c[n-]cn1 [triethyloctylphosphonium 4-nitroimidazolide] | 1220 ± 110 mPa·s | 804 ± 68 mPa·s | 1037.8 ± 5.8 kg/m3 | 547 ± 44 mPa·s | 1034.8 ± 5.8 kg/m3 | 382 ± 29 mPa·s | 1031.8 ± 5.8 kg/m3 | 1030.6 ± 5.7 kg/m3 | 276 ± 20 mPa·s | 1028.8 ± 5.7 kg/m3 | 204 ± 14 mPa·s | 1025.8 ± 5.7 kg/m3 | 155 ± 11 mPa·s | 1022.9 ± 5.7 kg/m3 | 120 ± 8 mPa·s | 1020.1 ± 5.6 kg/m3 | 1017.2 ± 5.6 kg/m3 | 1014.3 ± 5.6 kg/m3 | 1011.4 ± 5.5 kg/m3 | 1008.5 ± 5.5 kg/m3 | viscosity (318.15 K): 95 ± 6 mPa·s; viscosity (323.15 K): 76 ± 5 mPa·s; viscosity (328.15 K): 62 ± 4 mPa·s; viscosity (333.15 K): 52 ± 3 mPa·s; mass density (338.15 K): 1005.7 ± 5.5 kg/m3; mass density (343.15 K): 1002.8 ± 5.4 kg/m3; mass density (348.15 K): 1000 ± 5.4 kg/m3; mass density (353.15 K): 997.1 ± 5.4 kg/m3; Normal melting temperature: -28 ± 2 °C
2 | CCCCCCCC[P+](CC)(CC)CC.O=[N+]([O-])c1cn[n-]c1 [triethyloctylphosphonium 4-nitropyrazolide] | 1100 ± 100 mPa·s | 716 ± 60 mPa·s | 1040.1 ± 5.9 kg/m3 | 480 ± 38 mPa·s | 1037 ± 5.8 kg/m3 | 333 ± 25 mPa·s | 1033.9 ± 5.8 kg/m3 | 1032.7 ± 5.8 kg/m3 | 238 ± 17 mPa·s | 1030.9 ± 5.7 kg/m3 | 175 ± 12 mPa·s | 1027.9 ± 5.7 kg/m3 | 133 ± 9 mPa·s | 1024.9 ± 5.7 kg/m3 | 103 ± 7 mPa·s | 1022 ± 5.6 kg/m3 | 1019 ± 5.6 kg/m3 | 1016.1 ± 5.6 kg/m3 | 1013.2 ± 5.5 kg/m3 | 1010.2 ± 5.5 kg/m3 | viscosity (318.15 K): 81 ± 5 mPa·s; viscosity (323.15 K): 65 ± 4 mPa·s; viscosity (328.15 K): 53 ± 4 mPa·s; mass density (338.15 K): 1007.3 ± 5.5 kg/m3; mass density (343.15 K): 1004.4 ± 5.4 kg/m3; mass density (348.15 K): 1001.5 ± 5.4 kg/m3; mass density (353.15 K): 998.6 ± 5.4 kg/m3; Normal melting temperature: 5 ± 2 °C; Glass transition temperature: -72 ± 2 °C
3 | CCCCCCCC[P+](CC)(CC)CC.O=S(=O)([N-]S(=O)(=O)C(F)(F)F)C(F)(F)F [triethyloctylphosphonium bis(trifluoromethylsulfonyl)imide] | 379 ± 29 mPa·s | 268 ± 20 mPa·s | 1256.3 ± 8.6 kg/m3 | 194 ± 14 mPa·s | 1252.2 ± 8.5 kg/m3 | 145 ± 10 mPa·s | 1248.1 ± 8.5 kg/m3 | 1246.6 ± 8.5 kg/m3 | 111 ± 8 mPa·s | 1244.2 ± 8.4 kg/m3 | 87 ± 6 mPa·s | 1240.2 ± 8.4 kg/m3 | 73 ± 5 mPa·s | 1236.2 ± 8.3 kg/m3 | 57 ± 4 mPa·s | 1232.2 ± 8.3 kg/m3 | 1228.2 ± 8.2 kg/m3 | 1224.2 ± 8.2 kg/m3 | 1220.2 ± 8.1 kg/m3 | 1216.3 ± 8.1 kg/m3 | mass density (338.15 K): 1212.3 ± 8 kg/m3; mass density (343.15 K): 1208.4 ± 7.9 kg/m3; mass density (348.15 K): 1204.4 ± 7.9 kg/m3; mass density (353.15 K): 1200.5 ± 7.8 kg/m3
4 | CCCCCCCCCCCCCC[P+](CCCCCC)(CCCCCC)CCCCCC.Cc1ncc([N+](=O)[O-])[n-]1 [trihexyl(tetradecyl)phosphonium 2-methyl-5-nitroimidazolide] | 5890 ± 650 mPa·s | 3730 ± 390 mPa·s | 948.1 ± 4.9 kg/m3 | 2420 ± 240 mPa·s | 945.1 ± 4.9 kg/m3 | 1620 ± 150 mPa·s | 941.9 ± 4.8 kg/m3 | 940.6 ± 4.8 kg/m3 | 1110 ± 100 mPa·s | 938.7 ± 4.8 kg/m3 | 786 ± 66 mPa·s | 935.7 ± 4.8 kg/m3 | 569 ± 46 mPa·s | 932.8 ± 4.8 kg/m3 | 420 ± 32 mPa·s | 929.8 ± 4.7 kg/m3 | 926.9 ± 4.7 kg/m3 | 924 ± 4.7 kg/m3 | 921.1 ± 4.7 kg/m3 | 918.2 ± 4.6 kg/m3 | viscosity (318.15 K): 317 ± 24 mPa·s; viscosity (323.15 K): 244 ± 18 mPa·s; viscosity (328.15 K): 192 ± 13 mPa·s; viscosity (333.15 K): 153 ± 11 mPa·s; viscosity (338.15 K): 125 ± 8 mPa·s; mass density (338.15 K): 915.3 ± 4.6 kg/m3; mass density (343.15 K): 912.5 ± 4.6 kg/m3; mass density (348.15 K): 909.6 ± 4.6 kg/m3; mass density (353.15 K): 906.8 ± 4.6 kg/m3; Glass transition temperature: -79 ± 2 °C
5 | CCCCCCCCCCCCCC[P+](CCCCCC)(CCCCCC)CCCCCC.Clc1nc[n-]c1Cl [trihexyl(tetradecyl)phosphonium 4,5-dichloroimidazolide] | 4040 ± 420 mPa·s | 2580 ± 260 mPa·s | 974.1 ± 5.1 kg/m3 | 1680 ± 160 mPa·s | 970.8 ± 5.1 kg/m3 | 1140 ± 100 mPa·s | 967.5 ± 5.1 kg/m3 | 966.2 ± 5.1 kg/m3 | 789 ± 66 mPa·s | 964.4 ± 5 kg/m3 | 566 ± 45 mPa·s | 961.3 ± 5 kg/m3 | 415 ± 32 mPa·s | 958.3 ± 5 kg/m3 | 308 ± 23 mPa·s | 955.2 ± 4.9 kg/m3 | 952.2 ± 4.9 kg/m3 | 949.1 ± 4.9 kg/m3 | 946.2 ± 4.9 kg/m3 | 943.2 ± 4.8 kg/m3 | viscosity (318.15 K): 234 ± 17 mPa·s; viscosity (323.15 K): 182 ± 13 mPa·s; viscosity (328.15 K): 144 ± 10 mPa·s; viscosity (333.15 K): 116 ± 8 mPa·s; mass density (338.15 K): 940.2 ± 4.8 kg/m3; mass density (343.15 K): 937.2 ± 4.8 kg/m3; mass density (348.15 K): 934.2 ± 4.8 kg/m3; mass density (353.15 K): 931.3 ± 4.7 kg/m3; Glass transition temperature: -64 ± 2 °C
6 | CCCCCCCCCCCCCC[P+](CCCCCC)(CCCCCC)CCCCCC.N#Cc1nc[n-]c1C#N [trihexyl(tetradecyl)phosphonium 4,5-dicyanoimidazolide] | 2490 ± 240 mPa·s | 1630 ± 150 mPa·s | 928.9 ± 4.7 kg/m3 | 1090 ± 100 mPa·s | 925.7 ± 4.7 kg/m3 | 754 ± 63 mPa·s | 922.6 ± 4.7 kg/m3 | 921.5 ± 4.7 kg/m3 | 535 ± 43 mPa·s | 919.7 ± 4.7 kg/m3 | 391 ± 30 mPa·s | 916.8 ± 4.6 kg/m3 | 291 ± 21 mPa·s | 913.9 ± 4.6 kg/m3 | 220 ± 16 mPa·s | 911 ± 4.6 kg/m3 | 908.1 ± 4.6 kg/m3 | 905.2 ± 4.5 kg/m3 | 902.4 ± 4.5 kg/m3 | 899.6 ± 4.5 kg/m3 | viscosity (318.15 K): 171 ± 12 mPa·s; viscosity (323.15 K): 135 ± 9 mPa·s; viscosity (328.15 K): 108 ± 7 mPa·s; viscosity (333.15 K): 88 ± 6 mPa·s; viscosity (338.15 K): 73 ± 5 mPa·s; mass density (338.15 K): 896.7 ± 4.5 kg/m3; mass density (343.15 K): 893.9 ± 4.5 kg/m3; mass density (348.15 K): 891 ± 4.4 kg/m3; mass density (353.15 K): 888.2 ± 4.4 kg/m3; Glass transition temperature: -78 ± 2 °C
7 | CCCCCCCCCCCCCC[P+](CCCCCC)(CCCCCC)CCCCCC.O=[N+]([O-])c1c[n-]cn1 [trihexyl(tetradecyl)phosphonium 4-nitroimidazolide] | 3380 ± 340 mPa·s | 2220 ± 210 mPa·s | 949.4 ± 4.9 kg/m3 | 1500 ± 140 mPa·s | 946.3 ± 4.9 kg/m3 | 1040 ± 91 mPa·s | 943.1 ± 4.8 kg/m3 | 941.8 ± 4.8 kg/m3 | 735 ± 61 mPa·s | 940.1 ± 4.8 kg/m3 | 533 ± 42 mPa·s | 937.1 ± 4.8 kg/m3 | 396 ± 30 mPa·s | 934.2 ± 4.8 kg/m3 | 298 ± 22 mPa·s | 931.3 ± 4.7 kg/m3 | 928.4 ± 4.7 kg/m3 | 925.4 ± 4.7 kg/m3 | 922.6 ± 4.7 kg/m3 | 919.7 ± 4.7 kg/m3 | viscosity (318.15 K): 230 ± 16 mPa·s; viscosity (323.15 K): 180 ± 13 mPa·s; viscosity (328.15 K): 144 ± 10 mPa·s; viscosity (333.15 K): 117 ± 8 mPa·s; viscosity (338.15 K): 96 ± 6 mPa·s; mass density (338.15 K): 916.9 ± 4.6 kg/m3; viscosity (343.15 K): 80 ± 5 mPa·s; mass density (343.15 K): 914 ± 4.6 kg/m3; mass density (348.15 K): 911.2 ± 4.6 kg/m3; mass density (353.15 K): 908.3 ± 4.6 kg/m3; Glass transition temperature: -66 ± 2 °C
